From PubChem BioAssay (NCI)
“And” between values parts separate entries of the source, which are not always exact repeats. Equal entries are not always repeated.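 The compound was tested at five concentrations on cells cultured in 96-well plates, with a 48-hour exposure period. At the GI50, growth is halved. At the TGI there is no net growth.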

What was measured:
Assay in all cases: NCI tumour cell line growth inhibition, 48 h
CCRF-CEM leukemia = test system: CCRF-CEM leukemia
HOP-92 NSCLC = test system: HOP-92 NSCLC
KM12 colon = test system: KM12 colon
MALME-3M melanoma = test system: MALME-3M melanoma
NCI-H226 lung = test system: NCI-H226 lung
NCI-H460 lung = test system: NCI-H460 lung
RXF 393 renal = test system: RXF 393 renal
SF-539 CNS = test system: SF-539 CNS
SNB-75 CNS = test system: SNB-75 CNS
UACC-257 melanoma = test system: UACC-257 melanoma

| SMILES | TGI (CCRF-CEM leukemia) | TGI (HOP-92 NSCLC) | TGI (KM12 colon) | TGI (MALME-3M melanoma) | TGI (NCI-H226 lung) | TGI (NCI-H460 lung) | TGI (RXF 393 renal) | TGI (SF-539 CNS) | TGI (SNB-75 CNS) | TGI (UACC-257 melanoma) | GI50 (CCRF-CEM leukemia) [µM] | GI50 (HOP-92 NSCLC) | GI50 (KM12 colon) [µM] | GI50 (MALME-3M melanoma) [µM] | GI50 (NCI-H226 lung) [µM] | GI50 (NCI-H460 lung) [µM] | GI50 (RXF 393 renal) | GI50 (SF-539 CNS) [µM] | GI50 (SNB-75 CNS) [µM] | GI50 (UACC-257 melanoma) [µM] |
| --- | --- | --- | --- | --- | --- | --- | --- | --- | --- | --- | --- | --- | --- | --- | --- | --- | --- | --- | --- | --- |
| CCC1CCC2C3CC=C4CC(OC(C)=O)C(N)CC4(C)C3CCC12C (configuration not stated) | 10 µM | 10.8 µM | 8.64 µM | 8.33 µM | 39.7 µM | 3.53 µM | 3.68 µM | 3.5 µM | 5.51 µM | 4.55 µM |  |  |  |  |  |  |  |  |  |  |
| COc1cccc(-c2cc(C(=O)Nc3ccc(Cl)cc3)nc(N)n2)c1 | > 100 µM | > 100 µM | > 100 µM | > 100 µM | > 100 µM | > 100 µM | > 100 µM | > 100 µM | 68.1 µM | > 100 µM |  |  |  |  |  |  |  |  |  |  |
| O=S1(=O)OCc2ccccc21 | > 100 µM | > 100 µM | > 100 µM | > 100 µM | > 100 µM | > 100 µM | > 100 µM | > 100 µM | > 100 µM | > 100 µM |  |  |  |  |  |  |  |  |  |  |
| Clc1cc(Cl)cc(C2SCc3nc4ccccc4n32)c1 (configuration not stated) | 70.6 µM | 47.2 µM | 37.3 µM | 62.6 µM | 37.3 µM | 29.3 µM | 28.2 µM | 23.9 µM | > 100 µM | 32.4 µM |  |  |  |  |  |  |  |  |  |  |
| O=c1[nH]ccc2nc(N3CCC(O)CC3)nc(Nc3ccc(N4CCOCC4)cc3)c12 | > 100 µM | 5.02 µM | > 100 µM | > 63 µM | > 100 µM | > 100 µM | 7.5 µM | 11.2 µM | 12.1 µM | > 100 µM | 28.3 | 0.566 µM | 0.055 | 1.61 | > 100 | 2.38 | 1.74 µM | 2.85 | 2.39 | > 100 |
| COc1ccccc1CN=C1NC(=O)/C(=C/c2ccc3ncccc3c2)S1 | > 25 µM | 22 µM | > 16.9 µM | > 25 µM | > 25 µM | > 25 µM | > 25 µM | > 20.3 µM | > 25 µM | > 25 µM | 7.01 | 6.24 µM | 6.18 | > 25 | 8.43 | 6.91 | 8.75 µM | 5.28 | 3.9 | > 25 |
| O=C(CC(O)c1cccnc1)CC(O)c1cccnc1 (configuration not stated) | 20.9 µM | 34.5 µM | 26.7 µM | 39.9 µM | > 100 µM | 35.9 µM | 32.1 µM | 53.8 µM | 35.4 µM | 36.1 µM |  |  |  |  |  |  |  |  |  |  |
| CC[C@]12C=CCN3CC[C@@]4(c5ccc(OC)cc5N(C)[C@H]4[C@@](O)(C(=O)OC)[C@@H]1OC(=O)CCCC[P+](c1ccccc1)(c1ccccc1)c1ccccc1)[C@@H]32 | 6.46 µM | 1.35 µM | 1.85 µM | 1.35 µM | 9.74 µM | 11.6 µM | 2.72 µM | 12.1 µM | 2.08 µM | 1.09 µM | 0.789 | 0.238 µM | 0.44 | 0.319 | 2.12 | 1.7 | 0.635 µM | 0.993 | 0.357 | 0.279 |
| CS(=O)(=O)OCCCCOS(C)(=O)=O | 250 µM and > 877 µM | 250 µM and > 948 µM | > 1000 µM | 250 µM and > 1000 µM | 250 µM and > 1000 µM | 242 µM and > 1000 µM | 223 µM and > 1000 µM | 250 µM and > 1000 µM | 221 µM and > 1000 µM | 230 µM and > 1000 µM | 214 | 570 µM | > 872 | > 1000 | > 966 | 223 | 523 µM | 437 | 431 | 571 |
| CN(C)c1ccc(/C=N/NC(=O)CSc2nc3sc4c(c3c(=O)n2-c2ccccc2)CCCCC4)cc1 | > 100 µM | 29 µM | > 100 µM | > 100 µM | > 100 µM | 4.86 µM | 15.2 µM | 25.5 µM | 14.6 µM | > 100 µM | 5.82 | 3.55 µM | > 100 | 3.45 | 4.26 | 2.21 | 3.43 µM | 4.52 | 2.68 | > 100 |
| O=C1C2=C(C(=O)c3c(O)ccc(O)c31)N(c1cccnc1)Cc1ccccc1O2 | 0.513 µM | 0.459 µM | 5.23 µM | 0.385 µM | 1.82 µM | 6.78 µM | 0.367 µM | 1.36 µM | 2.15 µM | 1.39 µM | 0.0878 | 0.207 µM | 1.33 | 0.164 | 0.703 | 2.6 | 0.182 µM | 0.378 | 0.615 | 0.399 |
| O=c1ncc(I)c[nH]1 | > 100 µM | > 100 µM | > 100 µM | > 100 µM | > 100 µM | > 100 µM | > 100 µM | > 100 µM | > 100 µM | > 100 µM | > 100 | > 100 µM | > 100 | > 100 | > 100 | > 100 | > 100 µM | > 100 | > 100 | > 100 |
| CC(=O)O[C@H]1CC[C@@]2(C)C(=CC[C@@H]3C2CC[C@]2(C)C(=O)NC(=O)CC32)C1 (some centres not stated) | > 100 µM | > 100 µM | > 100 µM | > 100 µM | > 100 µM | > 100 µM | 84.1 µM | > 100 µM | > 100 µM | > 100 µM |  |  |  |  |  |  |  |  |  |  |
| CCN(CC)c1ccc(CNc2cc(C)nc3ccc(OC)cc23)cc1 | 10.2 µM | 6.26 µM | 11.6 µM | 3.43 µM | 14.4 µM | 4.33 µM | 3.87 µM | 4.36 µM | 5.05 µM | 4.53 µM | 2.78 | 2 µM | 3.1 | 1.8 | 3.12 | 1.97 | 2.02 µM | 2.22 | 2.04 | 2.14 |
| CC1OC(OC23C(=O)CC(C)(O)CC2(O)C=CC2=C3C(=O)c3ccc(C4CC(OC5CCC(OC6CC(O)C(O)C(C)O6)C(C)O5)C(O)C(C)O4)c(O)c3C2=O)CCC1O (configuration not stated) | > 100 µM | 28.7 µM and 14.8 µM | 31.2 µM and 27.5 µM | 8.48 µM and 3.49 µM | 38.5 µM and 35.5 µM | 38 µM and 34.3 µM | 26.9 µM and 19.2 µM | 31.8 µM and 31.4 µM | 32.5 µM and 29.9 µM | 31.9 µM and 28.8 µM |  | 15.2 µM and 4.81 µM |  |  |  |  | 13.8 µM and 5.87 µM |  |  |  |
